These results are taken from patent US20120129897A1, “BIS HETEROARYL INHIBITORS OF PRO-MATRIX METALLOPROTEINASE ACTIVATION” (priority 2010, published 2012).

Structures are written as SMILES.

The target of one assay is T1, proMMP9 (Homo sapiens, UniProt P14780).
T1 construct: endogenous in cells; host or cells: HFL-1 (ATCC CCL-153), TNFα and neutrophil elastase added
The assay can be described thus: Activation of proMMP9 by human fetal lung fibroblast (HFL-1) cultures (Western blot). The assay is classed as cell-based. Conditions: for Signal of 80 kD band (INT*mm^2): pAb-1246. The procedure: Compound-α was assessed additionally for ability to block the maturation of proMMP9 to active MMP9 in cultures of human fetal lung fibroblasts (HFL-1, American Type Culture Collection #CCL-153). Unlike rat synoviocytes, HFL-1 cells were unable to process proMMP9 to the active form without addition of neutrophil elastase. […] Rather, the function of elastase in this assay may be to inactivate tissue inhibitors of matrix metalloproteinases (TIMPs) that repress endogenous pathways of MMP9 activation (Am J Respir Crit Care Med; 1999; 159:1138-46).
HLF-1 were maintained in monolayer culture in DMEM with 10% FCS and were used between passage numbers 5-15. HLF-1 were embedded in collagen gels as described for rat SCW synoviocytes (vida supra). Half mL gels containing 0.4 million cells were dislodged into wells of 12 well Costar plates containing 1 mL/well of DMEM adjusted to contain 0.05% BSA and 100 ng/mL human TNFα (R&D Systems Cat #210-TA/CF). After overnight culture (37° C. and 5% CO2) wells were adjusted to contain an additional 0.5 mL of DMEM containing 0.05% BSA and with or without 13.2 μM Compound-α (final concentration was 3.3 μM Compound-α). Next, cultures were adjusted to contain 30 nM human elastase (Innovative Research). The plates were cultured an additional 72 hrs, at which time MMP9 secreted into the conditioned media was bound to gelatin-sepharose and evaluated by Western blot analysis as described for the rat synoviocyte cultures (vida supra). mAb-51/82 detected three forms of MMP9 in HFL-1 cultures.
A second experiment was performed to determine if the 80 kD form was mature active MMP9 and to determine the potency of Compound-α as an inhibitor of MMP9 maturation in this assay. HFL-1 cells embedded in collagen gels were cultured as described above in the presence of TNFα overnight and the cultures were then adjusted to contain 30 nM elastase and graded concentrations of Compound-α for an additional 72 hrs at which time MMP9 secreted into the conditioned media was bound to gelatin-sepharose and evaluated by Western blot analysis for active MMP9 using pAb-1246 raised against the N-terminal neoepitope of active MMP9 (Table 5). In the absence of Compound-α, pAb-1246 readily detected MMP9 with an electrophoretic mobility of approximately 80 kD. […] Inhibition occurred over a dose range with an IC50 of approximately 0.3 μM Compound-α.
Background: A western blot detects proteins with antibodies after separation by electrophoresis.

Another assay addresses T2, MMP9 (Rattus norvegicus, UniProt P50282).
T2 construct: Pro and active MMP9 were abundantly present in ankles of SCW-induced vehicle-treated rats; from tissue; host or cells: ankle (tibia-tarsus joint) homogenate, female Lewis rats
Description: Western blot of pro and active MMP9 in ankles of rats with SCW-induced arthritis. The class given is in vivo. The conditions noted are these: Day 26, four hours after AM dose; for Abundance of proMMP9 in ankles: mAb-L51/82, FIG. 3A. Here is the method:
Hind-limbs were skinned, severed just above the tibia-tarsus joint and below the metatarsals, and the tibia-tarsus joints (ankles) were weighed, snap frozen and pulverized on dry ice using a hammer and anvil. The pulverized tissue was suspended in 3 volumes (w:v) of ice-cold homogenization buffer containing 50 mM Tris pH 7.5, 150 mM NaCl, 5 mM EDTA, 1% Triton X100, 0.05% Brij 30, 10% dimethylsulfoxide and Complete EDTA-free Protease Inhibitor Cocktail (Roche Diagnostics). The suspended tissue was homogenized sequentially with a Kinematica AG Polytron and a Dounce homogenizer. Homogenates were centrifuged at 16,000×g for 10 min at 4° C. and the soluble fractions were saved. Dimethylsulfoxide was removed from a portion of each soluble fraction using PD MiniTrap™ G-25 desalting columns (GE Healthcare). Homogenates (0.25 mL), free of DMSO, were diluted with an equal volume of binding buffer (i.e., homogenization buffer without dimethylsufoxide) and adjusted to contain 50 μL of a 50% slurry of gelatin-conjugated sepharose. Following 2 hours of rotation at 4° C. the beads were washed twice in binding buffer and eluted in 100 μL 2×-reducing Laemmli buffer with heating to 95° C. for 5 minutes. Eluates (20 μL) were resolved on 4-12% NuPAGE gels, transferred to 0.45 μm pore-sized nitrocellose and immunoblotted for detection of proMMP9, active MMP9, and other processed forms using mAb-L51/82 and pAb-1246 as described above for detection of MMP9 forms in synoviocyte and HFL-1 cell conditioned media.
Rats in the study reported in Tables 4 and 5 were sacrificed on Day 26 four hours after the AM dose. Ankles harvested from the right-hind-limbs were processed by the method described above. Pro and active MMP9 were abundantly present in ankles of SCW-induced vehicle-treated rats (FIGS. 3A and 3B, lanes 1-3).

The mark [1] stands for this setting: 3.3 μM, 30 nM elastase, final 72 hrs, mAb-L51/82.

T2 sequence (P50282 108-708): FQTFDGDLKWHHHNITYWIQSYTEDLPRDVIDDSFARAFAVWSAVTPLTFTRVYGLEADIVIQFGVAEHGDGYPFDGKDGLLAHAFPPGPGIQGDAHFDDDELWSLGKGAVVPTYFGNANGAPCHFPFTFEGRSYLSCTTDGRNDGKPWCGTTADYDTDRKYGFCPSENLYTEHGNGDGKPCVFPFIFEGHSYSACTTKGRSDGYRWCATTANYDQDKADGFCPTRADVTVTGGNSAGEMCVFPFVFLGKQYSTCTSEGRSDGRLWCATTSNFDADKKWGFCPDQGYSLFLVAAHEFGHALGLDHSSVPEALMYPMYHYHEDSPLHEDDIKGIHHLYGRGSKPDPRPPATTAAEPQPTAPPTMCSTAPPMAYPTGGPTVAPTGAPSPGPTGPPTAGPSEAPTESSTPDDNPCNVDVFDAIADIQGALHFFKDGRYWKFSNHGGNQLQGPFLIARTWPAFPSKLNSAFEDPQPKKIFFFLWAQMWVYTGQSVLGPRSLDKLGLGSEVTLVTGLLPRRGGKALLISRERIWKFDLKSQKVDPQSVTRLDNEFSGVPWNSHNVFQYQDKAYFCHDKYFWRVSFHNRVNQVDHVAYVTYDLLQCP
T1 sequence (P14780 20-707 limits assumed): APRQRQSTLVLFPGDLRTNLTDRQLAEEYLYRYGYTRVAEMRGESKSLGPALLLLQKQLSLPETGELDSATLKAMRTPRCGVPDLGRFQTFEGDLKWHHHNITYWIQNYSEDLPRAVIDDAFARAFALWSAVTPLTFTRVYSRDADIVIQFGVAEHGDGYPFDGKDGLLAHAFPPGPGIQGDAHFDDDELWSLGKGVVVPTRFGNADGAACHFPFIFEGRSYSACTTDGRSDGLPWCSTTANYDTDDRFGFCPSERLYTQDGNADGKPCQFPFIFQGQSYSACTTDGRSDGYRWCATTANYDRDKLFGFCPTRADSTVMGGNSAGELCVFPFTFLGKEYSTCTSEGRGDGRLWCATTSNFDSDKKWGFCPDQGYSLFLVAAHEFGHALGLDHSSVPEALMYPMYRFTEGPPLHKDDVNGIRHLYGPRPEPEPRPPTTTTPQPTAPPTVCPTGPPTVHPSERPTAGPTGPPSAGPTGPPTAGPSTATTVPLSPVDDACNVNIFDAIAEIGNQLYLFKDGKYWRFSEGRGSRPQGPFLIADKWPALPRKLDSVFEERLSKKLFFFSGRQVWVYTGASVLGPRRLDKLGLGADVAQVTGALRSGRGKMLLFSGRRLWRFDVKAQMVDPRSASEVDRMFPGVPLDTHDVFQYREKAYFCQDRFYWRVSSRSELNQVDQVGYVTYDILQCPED

For the compound `Cc1nc(C)c(-c2csc(Nc3cc(S(N)(=O)=O)ccc3OC(C)C)n2)s1` [Compound-α, 3-(2′,4′-Dimethyl-[4,5′]bithiazolyl-2-ylamino)-4-isopropoxy-benzenesulfonamide.HBr], on proMMP9 (0.12 μM, 30 nM elastase, final 72 hrs), the “Signal of 80 kD band (INT*mm^2)” value is 168211 INT*mm^2. In addition, the “Signal of 80 kD band (INT*mm^2)” value on proMMP9 (0.37 μM, 30 nM elastase, final 72 hrs) stood at 45996 INT*mm^2. Besides, the “Signal of 80 kD band (INT*mm^2)” value at proMMP9 (1.1 μM, 30 nM elastase, final 72 hrs) is 1747 INT*mm^2. At proMMP9 (setting [1]), the “Percent of total signal, 80 kD” value was found to be 7%; the “Percent of total signal, 86 kD” value is 47%; the “Percent of total signal, 100 kD” value was found to be 46%; the “Signal (INT*mm^2), 80 kD” value is 6092 INT*mm^2. For the same compound, at proMMP9 (setting [1]), the “Signal (INT*mm^2), 86 kD” value was 43147 INT*mm^2; the “Signal (INT*mm^2), 100 kD” value amounted to 42107 INT*mm^2; the “Signal (INT*mm^2), Total” value is on record as 91346 INT*mm^2. The “Signal of 80 kD band (INT*mm^2)” value at proMMP9 (3.3 μM, 30 nM elastase, final 72 hrs) is listed as 152 INT*mm^2. For the same compound, the “Processing of MMP9 forms by HFL-1 cells” value at proMMP9 (3.3 μM, mAb-L51/82) is recorded as “the formation of the 80 kD form was suppressed”. Moreover, the “Signal of 80 kD band (INT*mm^2)” value at proMMP9 (10 μM, 30 nM elastase, final 72 hrs) worked out at 0 INT*mm^2. Also, the “Abundance of proMMP9 in ankles” value on MMP9 is listed as “did not reduce the abundance of proMMP9”. Moreover, at MMP9 (listed as Compound a), the “Abundance of proMMP9 in ankles” value was “did not reduce the abundance of proMMP-9”. The “Active 80 kD form of MMP9 in ankles” value at MMP9 (pAb-1246 and mAb-L51/82, FIG. 3) is reported as “notable reduction in the active 80 kD form of MMP9”.
